These are literature values, as cited in patent US10894006B2, “Nanoparticles for the encapsulation of compounds, preparation thereof and use of same” (CENTRO NACIONAL DE TECNOLOGÍA Y SEGURIDAD ALIMENTARIA, …, priority 2010, dated 2021).

Like-named read-outs stand apart in the source and are kept apart here.

For the molecule `Nc1nc2ncc(CNc3ccc(C(=O)N[C@@H](CCC(=O)O)C(=O)O)cc3)nc2c(=O)[nH]1` [Non-encap FA, folic acid], the solubility result by setting is: (in slightly alkaline aqueous solution) “freely soluble”; (in water) “slightly soluble”.
